Experimental data taken from publication PMC8080777, “Discovery, optimization, and evaluation of non-bile acid FXR/TGR5 dual agonists” (Scientific Reports, 2021).

How the values were obtained:
[1] = biological target: T1, FXR (Homo sapiens, UniProt Q96RI1); test: CHO cell-based FXR luciferase reporter assay (Indigo Biosciences); conditions: for FXR Efficacy (%) (1 µM) / FXR Efficacy (%) (10 µM) / FXR Efficacy (%) (0.1 µM): % vs OCA 1 µM as 100%
T1 construct: host or cells: CHO cells
T1 sequence (Q96RI1 1-486): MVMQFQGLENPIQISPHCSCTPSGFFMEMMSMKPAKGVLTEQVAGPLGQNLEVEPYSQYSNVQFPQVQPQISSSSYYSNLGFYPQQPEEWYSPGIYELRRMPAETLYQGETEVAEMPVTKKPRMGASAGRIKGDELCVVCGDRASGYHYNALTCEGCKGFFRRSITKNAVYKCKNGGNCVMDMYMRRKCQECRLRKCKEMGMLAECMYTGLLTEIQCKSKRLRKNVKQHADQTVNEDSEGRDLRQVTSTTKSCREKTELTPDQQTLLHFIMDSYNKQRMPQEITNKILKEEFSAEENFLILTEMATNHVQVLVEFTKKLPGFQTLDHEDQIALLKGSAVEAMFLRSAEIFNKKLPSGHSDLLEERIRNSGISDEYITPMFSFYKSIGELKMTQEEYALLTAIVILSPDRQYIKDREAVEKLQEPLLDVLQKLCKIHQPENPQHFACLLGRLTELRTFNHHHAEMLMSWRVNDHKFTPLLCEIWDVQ
Description: To evaluate direct agonist activities against FXR, test compounds were evaluated using a CHO cell-based FXR assay by Indigo Biosciences (State College, PA), in which cells were transfected with an FXR luciferase reporter system.
To directly evaluate the in vitro agonist activity towards FXR, test compounds were evaluated in CHO cells transfected with FXR responsive luciferase reporter (Nuclear Receptor & In Vitro Toxicology Solutions, Indigo Biosciences, State College, PA, USA). […] Each compound was tested in duplicate, and the average value was reported[35],[36].
(§1) The cell recovery medium (CRM, Human Farnesoid X Receptor (NR1H4, FXR reporter assay system, Indigo Biosciences, State College, PA, USA) and compound screening medium (CSM, Human Farnesoid X Receptor (NR1H4, FXR reporter assay system, Indigo Biosciences, State College, PA, USA) were removed from the freezer and thawed in a water bath at 37 °C. Test compounds were dissolved in dimethyl sulfoxide (DMSO, FUJIFILM Wako Pure Chemical Corporation, Osaka city, Osaka, Japan), and the treatment medium was prepared and diluted with CSM to achieve a final concentration of 0.2% total DMSO. The reporter cells were thawed by transferring 3.3 mL CRM at 37 °C into tubes of frozen cells. The tube containing reporter cells was recapped, and it was immediately place in a 37 °C water bath for 5 min. The reporter cells were gently inverted several times, and 100 µL cell suspension was dispensed into each well. One hundred microliters of treatment media was added into wells. Subsequently, the assay plate was kept at 37 °C, and it was incubated with 5% CO2 for 22 h. To prepare luciferase detection reagent (LDR), the detection substrate was gently mixed with detection buffer, media contents were removed from each well, and 100 µL LDR was added to each well of the assay plate. The assay plate was allowed to rest at room temperature for 5 min, and luminescence was quantified using the Multi-Mode Microplate Reader (FlexStation 3, Molecular Devices Inc., San Jose, CA, USA)[36].
S4. In vitro, in vivo assay, and selectvity.
To directly evaluate the in vitro agonist activity towards FXR, test compounds were evaluated in CHO cells transfected with FXR responsive luciferase reporter (Nuclear Receptor & In Vitro Toxicology Solutions, Indigo Biosciences, State College, PA, USA). Cells were incubated with […]
(FlexStation 3, Molecular Devices Inc., San Jose, CA, USA). Efficacies are reported relative to […]
reporter on of 1 µM. Each compound was tested in duplicate, and the average value was […]
as §1, with “sulfoxide (DMSO ,” for “sulfoxide (DMSO,”, “Osaka, Jap an),” for “Osaka, Japan),”, “a 37°C” for “a 37 °C”, “5% CO 2” for “5% CO2”, “using […]” for “using the Multi-Mode Microplate Reader (FlexStation 3, Molecular Devices Inc., San Jose, CA, USA)[36].”

[2] = biological target: T2, TGR5 (Homo sapiens, UniProt Q8TDU6); test: TGR5 cAMP assay in CHO cells transfected with TGR5 (cAMP Hunter eXpress, Discover X); assay type: cell-based
T2 construct: host or cells: CHO cells
T2 sequence (Q8TDU6 1-330): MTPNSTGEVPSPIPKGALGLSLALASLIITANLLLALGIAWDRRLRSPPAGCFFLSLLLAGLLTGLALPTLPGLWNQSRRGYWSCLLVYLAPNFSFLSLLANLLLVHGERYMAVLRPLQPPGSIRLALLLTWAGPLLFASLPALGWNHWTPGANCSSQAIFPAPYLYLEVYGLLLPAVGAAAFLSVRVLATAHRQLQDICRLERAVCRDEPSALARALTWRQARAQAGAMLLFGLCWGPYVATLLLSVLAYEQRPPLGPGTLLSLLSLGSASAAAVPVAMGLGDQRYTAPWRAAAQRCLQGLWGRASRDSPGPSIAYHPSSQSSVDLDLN
Description: TGR5 agonist activity was evaluated by transfecting CHO cells with TGR5 using the Discover X expression kit (cAMP Hunter eXpress GPCR Assay, Discover X Fremont, CA). Cells were incubated with test compounds for 0.5 h, and intracellular cAMP levels were measured using the multi-mode microplate reader.
(§2) TGR5 agonist activity was evaluated by transfecting CHO cells with TGR5 using the Discover X expression kit (cAMP Hunter eXpress Assay Kit, Discover X Fremont, CA, USA). Cells were incubated with the test compounds for 0.5 h, and intracellular cAMP levels were measured using Multi-Mode Microplate Reader (FlexStation 3, Molecular Devices Inc., San Jose, CA, USA).
Each compound was tested at concentrations of 10, 1, or 0.1 µM in duplicate (n = 2), with the average value shown.
S4. In vitro, in vivo assay, and selectvity. […]
In vitro TGR5 agonist assay protocol
as §2
Each compound was tested at concentrations of 10, 1, or 0.1 µM in duplicate (n=2), with the […]
parameter logistic equation, Y = min + (max - min)/(1 + 10^(n * (log10(EC50) - log10(conc)))), in […]

Compound	FXR Efficacy (%) (1 µM) [1]	TGR5 Efficacy (%) (10 µM) ([2]; % vs INT-767 10 µM as 100%)	FXR Efficacy (%) (10 µM) [1]	FXR agonist activity (in words) [1]	TGR5 agonist activity (in words) [2]	FXR Efficacy (%) (0.1 µM) [1]	TGR5 Efficacy (%) (1 µM) ([2]; % vs INT-767 10 µM as 100%)	TGR5 Efficacy (%) (0.1 µM) ([2]; 0.1 µM, % vs INT-767 10 µM as 100%)
CCc1cnccc1C(=O)N(Cc1ccc(-c2ccc(N(C)C)cc2)cc1)c1cc(Cl)cc(Cl)c1 [Compound 13v]	21.3	65.3						
Cc1cnccc1C(=O)N(C[C@H]1CC[C@H](c2ccc(N(C)C)cc2)CC1)c1cc(Cl)cc(Cl)c1 [Compound 20b]	47.1	31.1	106.8					
Cc1cc(C)cc(N(Cc2ccc(-c3ccc(N(C)C)cc3)cc2)C(=O)c2ccncc2C)c1 [Compound 13l]	37.6	48.5						
Cc1cnccc1C(=O)N(Cc1ccc(-c2ccc(N(C)C)cc2)cc1)c1cccc(-c2cnn(C(C)C)c2)c1C [Compound 13s]	61.0	24.1		moderate FXR/TGR5 agonist activity	moderate FXR/TGR5 agonist activity			
COc1ccc([C@H]2CC[C@H](CN(C(=O)c3ccncc3C)c3cc(Cl)cc(Cl)c3)CC2)cc1C [Compound 20d]	55.2	28.8	129.6	partial FXR agonists	weak TGR5 agonist			
CN(C)c1ccc(-c2ccc(CN(C(=O)c3ccncc3C3CC3)c3cc(Cl)cc(Cl)c3)cc2)cc1 [Compound 13w]	22.7	73.1						
COC(=O)/C=C/c1cccc(N(Cc2ccc(-c3ccc(N(C)C)cc3)cc2)C(=O)c2ccncc2C)c1 [Compound 13a]	24.6	-3.1	100.2	strong FXR agonist activity with full efficacy	inactive against TGR5			
COc1ncc(C23CCC(CN(C(=O)c4ccncc4C)c4cc(Cl)cc(Cl)c4)(CC2)CC3)cc1C [Compound 20u]	76.2					69.2	12.1	
COc1cc(Cl)cc(N(CC23CCC(c4ccc5c(c4)OCO5)(CC2)CC3)C(=O)c2ccncc2C)c1 [Compound 20o]	97.6	78.9				29.4	36.0	
CN(C)c1ccc(-c2ccc(CN(C(=O)c3ccncc3C(F)(F)F)c3cc(Cl)cc(Cl)c3)cc2)cc1 [Compound 13z]	10.6	24.4						
CN(C)c1ccc(-c2ccc(CN(C(=O)c3ccncc3Cl)c3cc(Cl)cc(Cl)c3)cc2)cc1 [Compound 13x]	62.1	9.8						
CN(C)c1ccc(-c2ccc(CN(C(=O)c3ccncc3Br)c3cc(Cl)cc(Cl)c3)cc2)cc1 [Compound 13y]	51.6	-2.0						
COC(=O)/C=C/c1cccc(N(Cc2ccc(-c3ccc(N(C)C)cc3)cc2)C(=O)c2ccncc2C)c1F [Compound 13u]	90.3	-2.5		strong FXR agonist activities				
Cc1cnccc1C(=O)N(Cc1ccc(-c2ccc(N(C)C)cc2)cc1)c1cc(Cl)ccc1Cl [Compound 13q]	1.5	75.2			good potency against TGR5			
Cc1cnccc1C(=O)N(CC12CCC(c3ccc4c(c3)OCO4)(CC1)CC2)c1cc(Cl)cc(Cl)c1 [Compound 20n]	98.9	67.6				73.5		
CN(C)c1ccc(-c2ccc(CN(C(=O)c3ccccc3Cl)c3cc(Cl)cc(Cl)c3)cc2)cc1 [Compound 13ac]	84.3	0.2		strong FXR activities				
COc1ccc(C(=O)N(Cc2ccc(-c3ccc(N(C)C)cc3)cc2)c2cc(Cl)cc(Cl)c2)c(Cl)c1 [Compound 13ag]	136.5	1.1		strong FXR activities	significantly low potency against TGR5			
CN(C)c1ccc(-c2ccc(CN(C(=O)c3ccc(O)cc3Cl)c3cc(Cl)cc(Cl)c3)cc2)cc1 [Compound 13af]	108.2	-0.2		strong FXR activities				
CCC1C(O)C2C3CCC(C(C)CCOS(=O)(=O)O)C3(C)CCC2C2(C)CCC(O)CC12 (stereo not shown) [INT-767, reference compound]		100					25.5	1.7
